From patent US5079241A, “Cephalosporin derivatives and pharmaceutical compositions in which they are present” (Sanofi, priority 1987, dated 1992)
Converted amounts (≈) assume the structure as drawn.

Assays:
Staph. aureus Smith = assay: bacteriostatic action in vitro by the dilution method (MIC); type: cell-based; conditions: Staphylococcus aureus, read-out: minimum inhibitory concentrations (MIC)
Protocol: (§1) The bacteriostatic action was determined in vitro by the dilution method. The study was carried out on both Gram-positive strains and Gram-negative strains.
(§2) The results for various products according to the invention, expressed as minimum inhibitory concentrations (MIC - μg/ml), are collated in Table 3.

[1] = system: Escherichia coli C1/Col E1::Tn3; assay: as above; type: cell-based; conditions: read-out: minimum inhibitory concentrations (MIC)
Protocol: as §1, §2

Providencia 155 = assay: as above; type: cell-based; conditions: read-out: minimum inhibitory concentrations (MIC)
Protocol: as §1, §2

[2] = system: Escherichia coli SOL RL 90; assay: as above; type: cell-based; conditions: SOLRL90, read-out: minimum inhibitory concentrations (MIC)
Protocol: as §1, §2

[3] = system: Klebsiella pneumoniae R30; assay: as above; type: cell-based; conditions: read-out: minimum inhibitory concentrations (MIC)
Protocol: as §1, §2

[4] = system: Pseudomonas aeruginosa NCTC 8203; assay: as above; type: cell-based; conditions: NCTC8203, read-out: minimum inhibitory concentrations (MIC)
Protocol: as §1, §2

[5] = system: Proteus vulgaris GN 76/C-1; assay: as above; type: cell-based; conditions: GN76, read-out: minimum inhibitory concentrations (MIC)
Protocol: as §1, §2

[6] = pharmacokinetic behavior in baboons, 20 mg/kg (Tables 4 and 6); type: in vivo; conditions: baboon
Protocol: (§3) Furthermore, the pharmacokinetic behavior of the products according to the invention was studied in baboons after administration at a dose of 20 mg/kg by intramuscular injection or intravenous injection.
(§4) Blood samples taken at various times after administration are used to determine the plasma concentration of the product studied by microbiological assay.
(§5) It is thus possible to construct the curve showing the plasma concentration as a function of time, and to determine different pharmacokinetic parameters of the compound studied:
(§6) the elimination half-life (t1/2 β) is calculated by the formula [formula] in which β represents the elimination gradient or slope;
(§7) the area under the curve (AUC) is determined by the trapezium method.
(§8) The plasma concentrations obtained with various products of the invention are collated in Tables 4 and 5. They are expressed in μg/ml.

[7] = protein binding by comparing two standard scales in baboon plasma and phosphate buffer; type: in vitro ADME; conditions: baboon plasma vs phosphate buffer (pH 7, 0.03M)
Excerpt: Furthermore, the protein binding is obtained by comparing two standard scales, one being prepared in baboon plasma and the other in phosphate buffer (pH 7, 0.03M).

[8] = pharmacokinetic behavior in baboons, 20 mg/kg (Tables 5 and 7); type: in vivo
Protocol: as §3, §4, §5, §6, §7, §8

With `CO/N=C(\C(=O)NC1C(=O)N2C(C(=O)O)=C(COC(=O)c3ccc(NC(=O)CCN)c(O)c3)CSC12)c1csc(N)n1` (centres unmarked) [SR 43853] the MIC (Staph. aureus Smith) was 0.25 µg/mL (≈ 0.403 µM), the MIC [1] was 0.06 µg/mL (≈ 0.0968 µM) and the MIC (Providencia 155) was 1 µg/mL (≈ 1.61 µM). It also gave an MIC [2] of 0.25 µg/mL (≈ 0.403 µM), an MIC [3] of 4 µg/mL (≈ 6.46 µM) and an MIC [4] of 2 µg/mL (≈ 3.23 µM). The MIC [5] was 16 µg/mL (≈ 25.8 µM).
Work on `CC(C)(O/N=C(\C(=O)NC1C(=O)N2C(C(=O)O)=C(COC(=O)c3ccc(NC(=O)CCN)c(O)c3)CSC12)c1csc(N)n1)C(=O)O` (centres unmarked) [SR 43904] yielded a Tmax ([6]; plasma, 20 mg/kg (Table 6)) of 1.5 h, a Cmax ([6]; plasma, 20 mg/kg (Table 6), read-out: Max plasma concentration) of 94.1 µg/mL and a half-life ([6]; plasma, 20 mg/kg (Table 6), read-out: t1/2 β) of 4.42 h. For the same molecule, the AUC(0-t) at 6 h ([6]; plasma, 20 mg/kg (Table 6), trapezium method) was 348 µg·h/mL, the concentration at 6 h ([6]; plasma, 20 mg/kg, 20 mg/kg (Table 6), read-out: Plasma concentration at 6 h) was 34.3 µg/mL and the concentration at 10 min ([6]; plasma, 20 mg/kg, 10 minutes) was 12.6 µg/mL. The concentration at 0.5 h ([6]; plasma, 20 mg/kg, 30 minutes) was 52.4 µg/mL, the concentration at 0.75 h ([6]; plasma, 20 mg/kg, 45 minutes) was 73 µg/mL and the concentration at 1 h ([6]; plasma, 20 mg/kg, 60 minutes) was 76.1 µg/mL. For the same molecule, the concentration at 1.5 h ([6]; plasma, 20 mg/kg, 90 minutes) was 94.1 µg/mL, the concentration at 2 h ([6]; plasma, 20 mg/kg, 120 minutes) was 76.1 µg/mL and the concentration at 3 h ([6]; plasma, 20 mg/kg, 180 minutes) was 59.7 µg/mL. For the same molecule, the concentration at 4 h ([6]; plasma, 20 mg/kg, 240 minutes) was 57.3 µg/mL, the concentration at 5 h ([6]; plasma, 20 mg/kg, 300 minutes) was 53.4 µg/mL and the concentration at 5.5 h ([6]; plasma, 20 mg/kg, 330 minutes) was 39.9 µg/mL. It also gave a concentration at 6 h ([6]; plasma, 20 mg/kg, 360 minutes, read-out: plasma concentration) of 34.3 µg/mL, a dose excreted at 6 h ([6]; urine, 20 mg/kg, 6 h (Table 6), read-out: Excretion in the urine) of 17% and a fraction unbound [7] of 0.29. For the same molecule, the MIC (Staph. aureus Smith) was 4 µg/mL (≈ 5.78 µM), the MIC [1] was 0.25 µg/mL (≈ 0.361 µM) and the MIC (Providencia 155) was 1 µg/mL (≈ 1.45 µM). The MIC [2] was 2 µg/mL (≈ 2.89 µM), the MIC [3] was 1 µg/mL (≈ 1.45 µM) and the MIC [4] was 1 µg/mL (≈ 1.45 µM). It also gave an MIC [5] of 0.25 µg/mL (≈ 0.361 µM).
`CO/N=C(\C(=O)NC1C(=O)N2C(C(=O)O)=C(COC(=O)c3ccc(NC(=O)C(N)CCN)c(O)c3)CSC12)c1csc(N)n1` (centres unmarked) [SR 44218] showed an MIC (Staph. aureus Smith) of 0.5 µg/mL (≈ 0.771 µM), an MIC [1] of 0.25 µg/mL (≈ 0.385 µM) and an MIC (Providencia 155) of 2 µg/mL (≈ 3.08 µM). The MIC [2] was 0.5 µg/mL (≈ 0.771 µM), the MIC [3] was 8 µg/mL (≈ 12.3 µM) and the MIC [4] was 4 µg/mL (≈ 6.17 µM). It also gave an MIC [5] of 16 µg/mL (≈ 24.7 µM).
Work on `CO/N=C(\C(=O)NC1C(=O)N2C(C(=O)O)=C(COC(=O)c3ccc(NC(=O)[C@@H](N)CCCN)c(O)c3)CSC12)c1csc(N)n1` (some centres unmarked) [SR 44219] yielded an MIC (Staph. aureus Smith) of 0.5 µg/mL (≈ 0.754 µM), an MIC [1] of 0.12 µg/mL (≈ 0.181 µM) and an MIC (Providencia 155) of 1 µg/mL (≈ 1.51 µM). The MIC [2] was 0.12 µg/mL (≈ 0.181 µM), the MIC [3] was 4 µg/mL (≈ 6.04 µM) and the MIC [4] was 1 µg/mL (≈ 1.51 µM). It also gave an MIC [5] of 16 µg/mL (≈ 24.1 µM).
With `CO/N=C(\C(=O)NC1C(=O)N2C(C(=O)O)=C(COC(=O)c3ccc(NS(=O)(=O)CCN)c(O)c3)CSC12)c1csc(N)n1` (stereo not drawn) [SR 44337, 7-[2-(2-Aminothiazol-4-yl)-2-methoxyiminoacetamido]-3-[[4-(2-aminoethylsulfonamido)-3-hydroxybenzoyl]oxymethyl]-3-cephem-4-carboxylic acid bis-trifluoroacetate, syn isomer] the “increase in area under the curve relative to reference product C” value [8] was 2.7 fold, the “Plasma concentration at 24 h” value ([8]; 20 mg/kg (Table 7)) was 39.0 µg/mL and the “Plasma concentration at 48 h” value ([8]; 20 mg/kg (Table 7)) was 14.4 µg/mL. For the same molecule, the “plasma concentration at 24 hours, times higher than reference product C” value ([8]; 24 hours) was 5 times, the “plasma concentration at 48 hours, times higher than reference product C” value ([8]; 48 hours) was 24 times and the Cmax ([8]; baboon, plasma, 20 mg/kg (Table 7), read-out: Maximum plasma concentration) was 266 µg/mL. For the same molecule, the half-life ([8]; baboon, plasma, 20 mg/kg (Table 7), read-out: t1/2 β (converted)) was 13.9 h, the AUC(0-inf) ([8]; baboon, plasma, 20 mg/kg (Table 7), trapezium method, read-out: AUC 0-.infin.) was 3320 µg·h/mL and the concentration at 0.08 h ([8]; baboon, plasma, 20 mg/kg, 0.08 hours) was 266 µg/mL. For the same molecule, the concentration at 0.16 h ([8]; baboon, plasma, 20 mg/kg, 0.16 hours) was 251 µg/mL, the concentration at 0.25 h ([8]; baboon, plasma, 20 mg/kg, 0.25 hours) was 238 µg/mL and the concentration at 0.33 h ([8]; baboon, plasma, 20 mg/kg, 0.33 hours) was 206 µg/mL. The concentration at 0.5 h ([8]; baboon, plasma, 20 mg/kg, 0.5 hours) was 194 µg/mL, the concentration at 0.75 h ([8]; baboon, plasma, 20 mg/kg, 0.75 hours) was 190 µg/mL and the concentration at 1 h ([8]; baboon, plasma, 20 mg/kg, 1 hours) was 182 µg/mL. It also gave a concentration at 1.5 h ([8]; baboon, plasma, 20 mg/kg, 1.5 hours) of 164 µg/mL, a concentration at 2 h ([8]; baboon, plasma, 20 mg/kg, 2 hours) of 153 µg/mL and a concentration at 3 h ([8]; baboon, plasma, 20 mg/kg, 3 hours) of 152 µg/mL. For the same molecule, the concentration at 4 h ([8]; baboon, plasma, 20 mg/kg, 4 hours) was 147 µg/mL, the concentration at 5 h ([8]; baboon, plasma, 20 mg/kg, 5 hours) was 141 µg/mL and the concentration at 6 h ([8]; baboon, plasma, 20 mg/kg, 6 hours) was 120 µg/mL. The concentration at 24 h ([8]; baboon, plasma, 20 mg/kg, 24 hours) was 39 µg/mL, the concentration at 48 h ([8]; baboon, plasma, 20 mg/kg, 48 hours) was 14.4 µg/mL and the dose excreted at 6 h ([8]; baboon, urine, 20 mg/kg (Table 7), read-out: Excretion in urine at 6 h) was 14%. For the same molecule, the MIC (Staph. aureus Smith) was 0.25 µg/mL (≈ 0.381 µM), the MIC [1] was 0.06 µg/mL (≈ 0.0915 µM) and the MIC (Providencia 155) was 1 µg/mL (≈ 1.53 µM). It also gave an MIC [2] of 0.5 µg/mL (≈ 0.763 µM), an MIC [3] of 4 µg/mL (≈ 6.1 µM) and an MIC [4] of 2 µg/mL (≈ 3.05 µM). For the same molecule, the MIC [5] was 1 µg/mL (≈ 1.53 µM).
